Data on six molecules can be found in patent publication US20070232694A1, “SKIN CLEANSER” (priority 2006, published 2007).

One assay concerns mycobacteria marinum. Briefly: Finger infection, patient case. The class given is in vivo, human. As to conditions: after eleven days of antibiotics. The procedure: Action against Mycobacteria: A person with four month long history of an infection on the posterior aspect of their right ring finger was treated. The infected areas were culture positive for mycobacteria marinum, with symptoms of infection resulting in a 4 cm long patchy zone of erythema, induration, and oozing from the wound. After failing two full courses of oral antibiotics, over the previous four months, the patient was given a third round of antibiotics, this time Clarythromycin, after their finger's condition had worsened.

Assay [1] concerns ATCC 29213 (MSSA) and ATCC 43330 (MRSA). Briefly: Petri dish (Mueller-Hinton agar) drop test, zones of inhibition vs controls. The class given is cell-based, Staphylococcus aureus. As to conditions: for order of anti-bacterial effectiveness: at a given concentration. The method, then:
Testing was conducted at a pathology laboratory certified for microbiology testing by a physician and a microbiologist. A double blind, randomized controlled experiment was conducted to evaluate the surfactant compounds against bacteria in Petri dishes.
Bacterial strain: Two well characterized strains of methicillin-sensitive Staphylococcus aureus (MSSA) and methicillin-resistant Staphylococcus aureus (MRSA) were used. Specifically, experiments used ATCC 29213 (MSSA) and ATCC 43330 (MRSA), both beta-lactamase positive strains, which represent greater than 90% of the respective strains in the American population.
Petri dish preparation: A sterile cotton swab (American Scientific Products, McGraw Park, Ill.) was dipped into the cultures and used to swab the entire surface of 150×15 mm Petri dishes containing 75 ml of standard Mueller-Hinton agar. Two Petri dishes were inoculated with ATCC 29213 (MSSA and two Petri dishes with ATCC 43330 (MRSA). One Petri dish of each group (MSSA and MRSA) was set aside as the controls. The other two Petri dishes (MSSA and MRSA) were divided up in quadrants, and each quadrant was labeled B, C, D or E.
Cleanser compositions were prepared as follows: A surfactant solution containing about 10% by volume of sodium dodecylbenzenesulfonate was prepared. An aqueous stock solution containing 0.5% by volume sodium hypochlorite and 0.5% by volume abrasive (calcium carbonate and sodium carbonate) was prepared. The surfactant solution and stock solution were mixed in various ratios to produce four skin cleanser solutions having four different surfactant concentrations of 0.5%, 1%, 2% and 8%, by volume. The amount of sodium hypochlorite, calcium carbonate and sodium carbonate in each of the four skin cleanser solutions was less than 1% concentration by volume.
Cleanser Testing: Four samples of the cleanser with the four different concentrations of the surfactant (0.5%, 1%, 2% and 8%) were placed into four separate, unmarked bottles. Each bottle was randomly labeled (B, C, D, or E), and the microbiologist conducting the study was unaware of any difference between the solutions.
Application: Holding each bottle vertically, the microbiologist added a single drop from each bottle (B, C, D, or E) to the corresponding quadrant of the labeled Petri dish. All four Petri dishes were placed in an incubator overnight at 37 degrees Celsius, and examined 20 hours later. Petri dishes were compared to the corresponding controls, and zones of inhibition were characterized by the largest point of diameter of the circle or oval.
Four cleanser compositions were prepared and tested in the manner described in Example 1, except that each cleanser contained a different anionic surfactant. […]

The test system of another assay is Enterococcus. Briefly: Infected decubitus ulcer, patient case. It is filed as in vivo, human. As to conditions: on antibiotics, five days after admission.

Text for Enterococcus: Action against Gram-positives such as Enterococcus: A person with long history of diabetes was admitted from their hospice care home to an acute care facility hospital secondary to an infected decubitus ulcer (bedsore). This patient's sacral ulcer tested positive from culture swab for Enterococcus, a common Gram-positive bacterium for infecting bedsores. Immediately upon admission, the patient was placed on antibiotics (ciprofloxacin). […] On day five, the treating physician directly cultured the wound again with two cotton swabs. Cotton swab #1, the control, was placed directly in the sealed container based on hospital protocol. Cotton swab #2 was placed into the sealed container, but one single vertical drop of a cleanser solution (prepared as described in Example 1). Both swabs were sent to the lab and a count of colony-forming units (CFUs) ordered.

On to `CC[C@H]1OC(=O)[C@H](C)[C@@H](O[C@H]2C[C@@](C)(OC)[C@@H](O)[C@H](C)O2)[C@H](C)[C@@H](O[C@@H]2O[C@H](C)C[C@H](N(C)C)[C@H]2O)[C@](C)(OC)C[C@@H](C)C(=O)[C@H](C)[C@@H](O)[C@]1(C)O` [Clarythromycin], for which the symptoms of infection result with mycobacteria marinum was “no change in symptoms”. For the molecule `CCCCCCCCCCCC(=O)N(C)CC(=O)[O-].[Na+]` [N-lauroylsarcosine sodium salt], the “order of anti-bacterial effectiveness” value in assay [1] is reported as “sodium dodecylbenzenesulfonate >N-lauroylsarcosine sodium salt >sodium cholate, sodium deoxycholate”. On to `OCl` [Sodium hypochlorite], for which the “effect on anti-bacterial action of sodium dodecylbenzenesulfonate” value in assay [1] (synergy of action) is listed as “potentiated”. Take `O=C(O)c1cn(C2CC2)c2cc(N3CCNCC3)c(F)cc2c1=O` [ciprofloxacin]: the course of ulcer entry in the assay with Enterococcus is “signs of worsening”. For the molecule `C[C@H](CCC(=O)[O-])[C@H]1CC[C@H]2[C@@H]3[C@H](O)C[C@@H]4C[C@H](O)CC[C@]4(C)[C@H]3C[C@H](O)[C@]12C.[Na+]` [sodium cholate], the “order of anti-bacterial effectiveness” value in assay [1] is on record as “sodium dodecylbenzenesulfonate >N-lauroylsarcosine sodium salt >sodium cholate, sodium deoxycholate”. Same read-out and setting: for sodium deoxycholate the value was “sodium dodecylbenzenesulfonate >N-lauroylsarcosine sodium salt >sodium cholate, sodium deoxycholate”.
